Structures are written as SMILES. Activity calls are given as the source filed them. Rule as the data show it, for most assays here: actives have a measured EC50 and inactives only a lower limit. Where only a bound is given, the exact number is not on record here.

In test [1] the target is Melanin-concentrating hormone receptor 1 (Homo sapiens, UniProt Q99705). Put plainly: Fluorescence-based counterscreen for antagonists of the G-protein coupled receptor 7 (GPR7): cell-based high throughput dose response assay to identify antagonists of the melanin-concentrating hormone receptor 1 (MCHR1). Format: functional.
The target of test [2] is T1, Neuropeptides B/W receptor type 1 (Homo sapiens, UniProt P48145).
T1 sequence (P48145 whole entry): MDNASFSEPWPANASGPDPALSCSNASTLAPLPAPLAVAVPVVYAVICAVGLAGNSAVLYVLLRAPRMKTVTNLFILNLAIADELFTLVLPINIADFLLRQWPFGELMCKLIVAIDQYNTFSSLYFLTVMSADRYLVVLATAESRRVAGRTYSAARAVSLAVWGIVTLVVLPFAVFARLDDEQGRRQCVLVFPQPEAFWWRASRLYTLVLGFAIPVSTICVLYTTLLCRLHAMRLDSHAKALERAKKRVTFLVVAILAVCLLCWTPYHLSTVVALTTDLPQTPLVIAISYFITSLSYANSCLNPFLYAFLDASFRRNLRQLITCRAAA
Put plainly: Fluorescence-based dose response cell-based high throughput screening assay to identify antagonists of the G-protein coupled receptor 7 (GPR7). [Related pubchem assays: 1952 (Screening assay (GPR7 antagonists).), 1880 (Summary AID.)]. It is filed as functional.

A further test deals with T2, Streptokinase A (Streptococcus pyogenes serotype M1, UniProt P10520).
T2 sequence (P10520 whole entry): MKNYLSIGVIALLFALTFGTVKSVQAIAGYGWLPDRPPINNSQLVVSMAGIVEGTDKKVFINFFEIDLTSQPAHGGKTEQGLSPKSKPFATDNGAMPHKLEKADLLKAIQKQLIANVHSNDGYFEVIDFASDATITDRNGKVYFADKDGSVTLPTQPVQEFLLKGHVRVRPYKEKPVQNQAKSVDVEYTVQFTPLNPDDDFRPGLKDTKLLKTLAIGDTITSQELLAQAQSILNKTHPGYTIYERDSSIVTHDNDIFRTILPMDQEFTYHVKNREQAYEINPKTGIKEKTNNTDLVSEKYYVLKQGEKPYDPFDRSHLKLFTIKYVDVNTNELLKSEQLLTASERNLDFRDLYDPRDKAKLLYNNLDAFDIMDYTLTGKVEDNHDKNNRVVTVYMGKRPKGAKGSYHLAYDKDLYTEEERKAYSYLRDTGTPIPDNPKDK
Briefly: S. pyogenes streptokinase expression inhibitors, potency, dose response, plasminogen activation absorbance, OD405 (AID 1914).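 Also: secreted streptokinase activity via plasminogen activation per viability signal from cell pellet.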 It is filed as functional, Streptococcus pyogenes M1 GAS.

Test [3] relates to Streptococcus. Briefly: Group A Streptococcus viability loss, dose response, counter-screen for streptokinase expression inhibitor project, luminescence, BacTiterGlo (AID 1915).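 Also: potency for reduction of bacterial viability or growth.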 It is filed as functional, organism-based.
Test [4] has as its system Streptococcus sp. 'group A'. Briefly: growth inhibition of control SK(-) GAS strain, dose response, counter-screen for streptokinase expression inhibitor project, luminescence, kanamycin, BacTiterGlo, confirmation (AID 1900). Format: functional, organism-based.
Test [5] relates to Streptococcus. Put plainly: Luminescence Microorganism-Based Dose Response Follow up to Identify Compounds Cytotoxic to Streptococcus. [Related pubchem assays: 1677 (Project Summary), 1915, 1914, 1902 (Retest at Dose), 1900 (Counter Screen), 1662 (Primary HTS)]. It is filed as functional, organism-based.
Test [6] can be described thus: inhibitors of firefly luciferase expression or activity, dose response, H4 neuroglioma cells, luminescence (AID 1990). It is filed as functional, cell-based.
The test system of test [7] is BJ. Put plainly: cytotoxicity toward BJ-TERT-LT-ST fibroblasts, dose response, cell-based, RAS-independent, luminescence (AID 1935).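 Also: BJ fibroblasts immortalized with TERT plus LT and ST oncogenes.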 It is filed as functional. To be noted: Homo sapiens.
Another test addresses Paired box protein Pax-8 (Homo sapiens, UniProt Q06710). Put plainly: inhibitors of PAX8-driven TPO luciferase reporter, dose response, RMG-I cells, cherry-pick (AID 687027).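 Also: luciferase reporter driven by Pax8 target thyroperoxidase promoter measured by SteadyGlo luminescence.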 It is filed as functional, cell-based.
A short description of test [8]: luciferase reporter signal reduction – luminescence, H4-C neuroglioblastoma cells, dose response (AID 2458).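 Also: H4 neuroglioblastoma cells stably carrying a luciferase reporter gene fusion.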 It is filed as functional, cell-based.
Test [9] is described as follows: Luminescence Cell-Based Dose Response HTS to Identify Inhibitors of 5'UTR Stem-Loop Driven Prion Protein mRNA Translation in H4 Neuroglioblastoma Cells. [Related pubchem assays: 1827 (Project Summary), 1813 (Primary HTS)]. Format: functional.
Test [10] can be described thus: cytotoxicity toward DRD oncogenic fibroblasts, dose response, cell-based, non-viral oncogenic, luminescence (AID 1934). Format: functional. To be noted: Homo sapiens.
Test [11] has as its system BJ. Put plainly: cytotoxicity toward BJ-TERT fibroblasts, dose response, cell-based, RAS-independent, luminescence (AID 1933). It is filed as functional. The settings on record: Homo sapiens.
Test [12] in a line: inhibitors of SNCA 5'UTR-driven reporter translation, confirmation, H4 neuroglioma cells, luminescence (AID 1988). It is filed as functional, cell-based.
Test [13] in a line: cytotoxicity in HEK-293T cells, dose response, cytotoxicity control for TCR NF-kB inhibitor project, luminescence, T-cell screen hits (AID 489026).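 Also: cells exposed to compound about 14 hours before the viability readout.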 It is filed as functional, cell-based.
Test [14] concerns BJ. Briefly: cells. Format: functional, cell-based. To be noted: Homo sapiens.
Another test in a line: cells. Format: functional, cell-based.
The nature of test [15]: inhibitors of SNCA 5'UTR-driven translation, confirmation, luminescence, H4 neuroglioblastoma cells, dose confirmation (AID 2454).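 Also: H4 neuroglioblastoma cells carrying an alpha-synuclein 5'UTR luciferase reporter; potency for inhibition of the luciferase signal.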 Format: functional, cell-based.
The target in test [16] is T3, Polyadenylate-binding protein 1 (Homo sapiens, UniProt P11940). Briefly: PABP poly(A) RNA binding inhibitors, primary screen, biochemical, fluorescence polarization, uHTS (AID 2014).
The target in test [17] is T3, Polyadenylate-binding protein 1. Put plainly: PABP inhibition in translation initiation, SAR follow-up (AID 435018). It is filed as functional.
For test [18], the target named is T4, Eukaryotic translation initiation factor 4H (Homo sapiens, UniProt Q15056). Briefly: human eIF4H binding inhibitors, primary screen, translation initiation inhibitor project, biochemical, uHTS, fluorescence polarization (AID 2012).
Test [19] concerns the target T4, Eukaryotic translation initiation factor 4H. Put plainly: eIF4H inhibition in translation initiation, SAR follow-up (AID 435011). It is filed as functional.

T3 sequence (P11940 whole entry): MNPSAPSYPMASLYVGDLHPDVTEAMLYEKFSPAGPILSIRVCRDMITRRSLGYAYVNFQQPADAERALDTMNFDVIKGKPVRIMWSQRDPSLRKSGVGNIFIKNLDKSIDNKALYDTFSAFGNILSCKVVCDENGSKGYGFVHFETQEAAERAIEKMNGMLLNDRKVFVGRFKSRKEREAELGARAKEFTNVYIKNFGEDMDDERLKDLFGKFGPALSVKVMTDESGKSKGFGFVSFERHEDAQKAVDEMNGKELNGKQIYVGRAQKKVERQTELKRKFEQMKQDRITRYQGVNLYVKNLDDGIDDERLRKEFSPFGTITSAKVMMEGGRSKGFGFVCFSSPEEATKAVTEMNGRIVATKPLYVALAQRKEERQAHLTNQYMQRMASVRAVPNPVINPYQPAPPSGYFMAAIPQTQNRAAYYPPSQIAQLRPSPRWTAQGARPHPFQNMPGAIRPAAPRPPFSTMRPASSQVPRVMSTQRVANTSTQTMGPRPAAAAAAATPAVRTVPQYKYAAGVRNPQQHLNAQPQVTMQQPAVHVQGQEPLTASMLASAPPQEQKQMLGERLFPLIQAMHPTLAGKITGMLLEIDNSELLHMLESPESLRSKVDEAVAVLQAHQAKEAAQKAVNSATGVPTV
Sequence of Melanin-concentrating hormone receptor 1 (Q99705 whole entry): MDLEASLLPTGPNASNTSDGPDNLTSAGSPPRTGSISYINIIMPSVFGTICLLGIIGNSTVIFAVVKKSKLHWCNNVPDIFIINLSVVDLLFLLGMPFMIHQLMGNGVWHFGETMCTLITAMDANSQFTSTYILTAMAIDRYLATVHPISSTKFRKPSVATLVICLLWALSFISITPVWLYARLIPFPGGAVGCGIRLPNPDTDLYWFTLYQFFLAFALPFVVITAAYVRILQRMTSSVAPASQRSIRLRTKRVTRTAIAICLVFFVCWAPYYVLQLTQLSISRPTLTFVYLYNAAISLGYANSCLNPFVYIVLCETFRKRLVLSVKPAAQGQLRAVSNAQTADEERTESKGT
Sequence of Paired box protein Pax-8 (Q06710 whole entry, the tested form may be a part): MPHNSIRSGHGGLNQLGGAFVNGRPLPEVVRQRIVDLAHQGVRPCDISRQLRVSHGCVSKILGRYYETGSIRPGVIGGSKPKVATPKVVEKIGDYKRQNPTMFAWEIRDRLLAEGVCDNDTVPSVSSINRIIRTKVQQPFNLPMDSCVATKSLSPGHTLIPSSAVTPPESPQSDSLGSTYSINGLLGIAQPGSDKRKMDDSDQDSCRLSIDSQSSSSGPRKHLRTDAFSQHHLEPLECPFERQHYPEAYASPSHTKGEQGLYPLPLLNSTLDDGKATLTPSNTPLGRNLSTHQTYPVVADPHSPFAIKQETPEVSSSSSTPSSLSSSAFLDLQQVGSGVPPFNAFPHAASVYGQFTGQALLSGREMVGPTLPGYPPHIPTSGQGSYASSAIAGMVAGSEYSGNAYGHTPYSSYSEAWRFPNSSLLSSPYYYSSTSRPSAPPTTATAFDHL

In the case of `COC(=O)C(O)(c1ccc(N(C)C(=O)c2ccc(Cl)c(Cl)c2)cc1)C(F)(F)F` (configuration not stated), the IC50 is 15000 nM (not active) in test [1] and > 14600 nM (not active) in test [2].

Regarding `Cn1c(=O)c2c(nc(SCc3ccccc3)n2Cc2ccc(Cl)cc2)n(C)c1=O`, the EC50 is 10700 nM (active) at Streptokinase A, > 150000 nM (not active) with Streptococcus [3], 7960 nM (active) in [4] and > 500000 nM (not active) in the test on Streptococcus [5].

For the compound `COc1cc2c(c(OC)c1OC)-c1ccc(O)cc1[C@@H](NC(C)=O)CC2` [N-ACETYLCOLCHINOL], the EC50 is < 100 nM (active) in [6]; 146 nM (inconclusive) in the test on BJ [7]; 88 nM (active) in test [8]; < 100 nM (active) in [9]; 201 nM (active) in test [10]; 193 nM (active) in the test on BJ [11]. Besides, the concentration giving a half-maximal response (EC50) in [12] was < 100 nM (active); with BJ [14], 345 nM (inconclusive); in “cells” it was 100 nM (active); in [15] it was 72 nM (active). Moreover, the AC50 on Paired box protein Pax-8 is 370 nM (active). Also, the IC50 in [13] was > 80000 nM (inactive).

With `Cc1ccc(OC(C)C(=O)Nc2ccc3c(c2)n(C)c(=O)n3C)c(C)c1` (configuration not stated), the IC50 is 16200 nM (active) in [16], 4390 nM (active) in [17], > 100000 nM (inactive) in [18] and 35000 nM (active) in test [19].

The values are drawn from ChEMBL document CHEMBL1201862, “PubChem BioAssay data set” (2004).
